The values below come from patent US9375000B2, “Pesticidal arylpyrrolidines” (Bayer Intellectual Property GmbH, priority 2011, dated 2016).

SMILES strings stand for the structures.

Format in all cases: in vivo
Data set [1] deals with Cucurbit Leaf Beetle (Aulacophora femoralis). In words: Cucurbit leaf beetle (Aulacophora femoralis) cucumber leaf dip test. The note with it: after 7 days. A digest of the protocol: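 Cucumber leaves dipped in compound formulated with DMF and polyoxyethylene alkyl phenyl ether, diluted in water, with ammonium salt or ammonium salt plus penetration enhancer at 1000 ppm added if necessary; dried leaves placed on sterilized soil with five second-instar larvae. Kept at 25° C; larval mortality counted after 7 days.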

Data set [2] relates to Larvae of Spodoptera litura. The experiment in a line: Larvae of Spodoptera litura, method using artificial feeds. The note with it: artificial feed, after 7 days. In a few lines:
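Compound formulated in dimethylformamide with polyoxyethylene alkyl phenyl ether emulsifier, water-diluted and poured onto artificial diet. Five 3rd-instar Spodoptera litura larvae per cup, held at 25° C and 50-60% humidity. Mortality after 7 days expressed as pesticidal ratio.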

A further data set deals with Thrips palmi. The experiment in a line: Thrips palmi spray test (THRIPL). The note with it: active compound concentration 20 ppm; after 6 days. In a few lines: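 Cucumber seedlings sprayed with compound formulated in DMF/polyoxyethylene alkyl phenyl ether and diluted in water, ammonium salt ± penetration enhancer at 1000 ppm added if needed. About 100 T. palmi eggs attached, plants held caged at 100% humidity, 23 °C. Percent activity scored from feeding damage after 6 days, 100 = no damage, 0 = as untreated.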

The subject of data set [3] is Nymphs of the tick Amblyomma hebraeum. The experiment in a line: Amblyomma hebraeum test (AMBYHE), nymph immersion. The settings on record: application rate 100 ppm; immersion one minute; 42 days. The procedure:
Solvent: Dimethyl sulfoxide
To produce a suitable preparation of active compound, 10 mg of active compound are dissolved in 0.5 ml solvent, and the concentrate is diluted with water to the desired concentration. Nymphs of the tick Amblyomma hebraeum are placed in perforated plastic beakers and immersed in aqueous compound solution for one minute. Ticks are transferred to a filter paper in a petridish and incubated in a climate chamber for 42 days. After the specified period of time, mortality in % is determined. 100% means that all the ticks have been killed; 0% means that none of the ticks have been killed.

The subject of data set [4] is Two-Spotted Spider Mite (Tetranychus urticae). In words: Two-spotted spider mite (Tetranychus urticae) spray test on kidney bean. The note with it: after 7 days. In a few lines:
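Kidney bean plants at the two-leaf stage carried 50-100 adult mites and were sprayed one day later with compound in DMF/polyoxyethylene alkyl phenyl ether diluted in water. Ammonium salt and penetration enhancer at 1000 ppm were added if needed. Acaricidal activity (% mites killed) was scored after 7 days in a greenhouse.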

Another data set deals with Ctenocephalides felis. In words: Test against Ctenocephalides felis (CTECFE), blood feeding. The settings on record: for activity (mortality): application rate 100 ppm in cattle blood, after 2 days; for mortality at 100 ppm: Ctenocephalides felis, in Bos taurus, 48 h, read-out: activity (mortality). How it is done: (§1) Solvent: dimethyl sulfoxide
To produce a suitable preparation of active compound, 10 mg of active compound are dissolved in 0.5 ml solvent, and the concentrate is diluted with cattle blood to the desired concentration. Approximately 20 adult unfed (Ctenocepahlides felis) are placed in flea chambers. The blood chamber, sealed with parafilm on the bottom, are filled with cattle blood supplied with compound solution and placed on top of the flea chamber, so that the fleas are able to suck the blood. The blood chamber is heated to 37° C. whereas the flea chamber is kept at room temperature.
After 2 days mortality in % is determined. 100% means that all the fleas have been killed; 0% means that none of the fleas have been killed.

Data set [5] relates to green peach aphids (Myzus persicae). The experiment in a line: Myzus persicae spray test (MYZUPE). The settings on record: active compound concentration 20 ppm; after 6 days. The procedure:
Unless not mentioned otherwise, the test solutions were prepared as follows:
Solvent: 3 parts by weight Dimethylformamide
Emulsifier: 1 part by weight Polyoxyethylene alkyl phenyl ether
In order to make an appropriate formulation of an active compound, 1 part by weight of the active compound is mixed with the above mentioned amount of solvent and emulsifier and the mixture is diluted with water to a prescribed concentration. Ammonium salt or ammonium salt and penetration enhancer in a dosage of 1000 ppm are added to the desired concentration if necessary.
1 day before treatment, green peach aphids (Myzus persicae) are inoculated onto the testing plants, about 50 heads per leaf, 100 for 1 pot. A paper label is placed on each pot. Solutions are sprayed directly onto both insects and plants. After drying, the pots are placed in the greenhouse at 20° C.-25° C. After 6 days mortality in % is determined. An insecticidal activity of 100% means that all aphids were killed, whereas an insecticidal activity of 0% means that no aphid was killed.

The test system of the next data set is Musca domestica. The experiment in a line: Test against Musca domestica. The note with it: Musca domestica, 48 h, read-out: activity (mortality). How it is done:
as §1
To produce a suitable preparation of active compound, 10 mg of active compound are dissolved in 0.5 ml solvent, and the concentrate is diluted with water to the desired concentration. Prior to the assay, a piece of kitchen sponge is soaked with a mixture of sugar and compound solution and placed into a container. 10 adults (Musca domestica) are placed into the container and closed with a perforated lid. After 2 days mortality in % is determined. 100% means that all the flies have been killed; 0% means that none of the flies have been killed.

The test system of data set [6] is Tobacco Cutworm (Spodoptera litura) Larvae. The experiment in a line: Tobacco cutworm (Spodoptera litura) larvae, sweet potato leaf dip test. The settings on record: dead larvae after 7 days. A digest of the protocol: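 Sweet potato leaves were dipped in DMF/emulsifier test solution at the set concentration and air-dried. Ten third-instar S. litura larvae were placed per dish at 25 °C, with fresh leaves added on days 2 and 4. Mortality was counted on day 7, given as % insecticidal activity averaged over two dishes.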

Data set [7] has as its system Lucilia cuprina 1st instar larvae. In words: Test against Lucilia cuprina larvae. The settings on record: 48 h, read-out: activity (larval mortality). How it is done: as §1
10 mg active compound are dissolve in 0.5 mL dimethyl sulfoxide. Serial dilutions are made to obtain the desired rates.
Approximately 20 Lucilia cuprina 1st instar larvae are transferred into a test tube containing 1 cm^3 of minced horse meat and 0.5 ml aqueous dilution of test compound. After 48 hrs percentage of larval mortality are recorded. 100% efficacy=all larvae are killed, […].

The subject of data set [8] is adult engorged female Boophilus microplus ticks. The experiment in a line: Test against Boophilus microplus (dip). The settings on record: Rhipicephalus microplus, 168 h, read-out: activity (mortality).
Where [9] appears, read: active compound concentration 4 ppm.
[10] abbreviates: active compound concentration 20 ppm.
[11] abbreviates: Aulacophora, foliar, 168 h, active compound concentration 20 ppm, read-out: insecticidal activity.
Where [12] appears, read: Spodoptera litura, 168 h, active compound concentration 20 ppm, read-out: insecticidal activity (pesticidal ratio).
The mark [13] stands for this setting: Tetranychus urticae, 168 h, active compound concentration 20 ppm, read-out: acaricidal activity.

Turning to `O=C(NCc1ccc(N2CCC(c3ccc(F)c(C(F)(F)F)c3)(C(F)(F)F)C2O)nc1C(F)(F)F)C1CC1` (mixture of isomers) [A3-236], the insecticidal activity in data set [1] (setting [9]) and in [1] (setting [10]) was 100% throughout. The “insecticidal activity (pesticidal ratio)” value in [2] (setting [9]) and in data set [2] (setting [10]) was 100% in each case. Further, in the data set with Thrips palmi, the “insecticidal activity (by feeding damage degree)” value is given as 98%. Also, the “activity (mortality)” value in [3] was 100%. Besides, the acaricidal activity in data set [4] (setting [9]) was 100%.
`CCC(=O)NCc1ccc(N2CCC(c3cc(F)cc(C(F)(F)F)c3)(C(F)(F)F)C2O)nc1C(F)(F)F` (mixture of isomers) [A3-244]: the insecticidal activity in data set [1] (setting [9]) and in data set [1] (setting [10]) was 100% throughout. The “insecticidal activity (pesticidal ratio)” value in data set [2] (setting [9]) and in data set [2] (setting [10]) was 100% throughout. Also, the “activity (mortality)” value in [3] stood at 100%. For the same compound, the acaricidal activity in data set [4] (setting [9]) came out at 90%.
Regarding `O=C(NCc1ccc(N2CCC(c3cc(F)cc(C(F)(F)F)c3)(C(F)(F)F)C2O)nc1C(F)(F)F)C1CC1` (mixture of isomers) [A3-247], the “activity (mortality)” value came out at 95% in the data set with Ctenocephalides felis and 100% in data set [3]. The insecticidal activity in [1] (setting [9]) and in [1] (setting [10]) was 100% each time. For the same compound, the “insecticidal activity (pesticidal ratio)” value in data set [2] (setting [9]) and in [2] (setting [10]) was 100% throughout. Besides, the “insecticidal activity (mortality)” value in data set [5] stood at 100%. Moreover, the acaricidal activity in data set [4] (setting [9]) and in data set [4] (setting [10]) was 100% each time.
For the compound `O=C(CC(F)(F)F)NCc1ccc(N2CCC(c3cc(Cl)cc(C(F)(F)F)c3)(C(F)(F)F)C2O)nc1C(F)(F)F` (racemic) [A3-271], the insecticidal activity in data set [1] (setting [9]) and in data set [1] (setting [10]) was 100% in each case. The “insecticidal activity (pesticidal ratio)” value in data set [2] (setting [9]) and in [2] (setting [10]) was 100% throughout. The “insecticidal activity (by feeding damage degree)” value in the data set on Thrips palmi is 98%. In data set [3], the “activity (mortality)” value amounted to 100%. Moreover, the acaricidal activity in data set [4] (setting [9]) and in data set [4] (setting [10]) was 100% throughout.
Turning to `O=C(NCc1ccc(N2CCC(c3cc(C(F)(F)F)cc(C(F)(F)F)c3)(C(F)(F)F)C2O)cc1Cl)C1CC1` (centres unmarked) [A1-27, N-(4-{3-[3,5-bis(trifluoromethyl)phenyl]-2-hydroxy-3-(trifluoromethyl)pyrrolidin-1-yl}-2-chlorobenzyl)cyclopropanecarboxamide], the mortality at 100 ppm (in the data set on Musca domestica; in the data set with Ctenocephalides felis; in [7]) was 100% in each case. Moreover, the insecticidal activity in data set [6] (setting [10]) came to 100%. The pest or weed control at 20 ppm in data set [1] (setting [11]), in data set [2] (setting [12]) and in [4] (setting [13]) was 100% each time.
Take `CCC(=O)NCc1ccc(N2CCC(c3cc(Cl)cc(Cl)c3)(C(F)(F)F)C2O)cc1C(F)(F)F` (centres unmarked) [A1-35, N-{4-[3-(3,5-dichlorophenyl)-2-hydroxy-3-(trifluoromethyl)pyrrolidin-1-yl]-2-(trifluoromethyl)benzyl}propanamide]: the mortality at 100 ppm (in the data set with Ctenocephalides felis; in [7]) was 100% in each case. Further, the pest or weed control at 20 ppm in [1] (setting [11]), in data set [2] (setting [12]) and in data set [4] (setting [13]) was 100% each time. The mortality at 20 ppm in [8] was found to be 100%.
As for `O=C(NCc1ccc(N2CCC(c3cc(Cl)cc(Cl)c3F)(C(F)(F)F)C2O)cc1C(F)(F)F)C1CC1` (centres unmarked) [A1-409, N-{4-[3-(3,5-dichloro-2-fluorophenyl)-2-hydroxy-3-(trifluoromethyl)pyrrolidin-1-yl]-2-(trifluoromethyl)benzyl}cyclopropanecarboxamide], the mortality at 100 ppm with Musca domestica came to 100%; with Ctenocephalides felis, 100%; in data set [7], 100%; in [8] it was 90%. In addition, the pest or weed control at 4 ppm in [1] (Aulacophora, foliar, 168 h, active compound concentration 4 ppm, read-out: insecticidal activity) was 100%; in [2] (Spodoptera litura, 168 h, active compound concentration 4 ppm, read-out: insecticidal activity (pesticidal ratio)), 100%; in [4] (Tetranychus urticae, 168 h, active compound concentration 4 ppm, read-out: acaricidal activity), 100%. For the same compound, the “insecticidal activity (by feeding damage degree)” value in the data set on Thrips palmi is reported as 98%.
For `O=C(NCc1cnc(N2CCC(c3cc(Cl)c(F)c(Cl)c3)(C(F)(F)F)C2O)nc1C(F)(F)F)C1CC1` (centres unmarked) [A4-104], the insecticidal activity in data set [6] (setting [9]) and in data set [1] (setting [10]) was 100% in each case. The “insecticidal activity (by feeding damage degree)” value in the data set on Thrips palmi stood at 98%. The “activity (mortality)” value in data set [3] is given as 100%. In [4] (setting [9]), this compound came in with an acaricidal activity of 100%.
Take `O=C(NCc1cnc(N2CCC(c3cc(Cl)c(F)c(Cl)c3F)(C(F)(F)F)C2O)nc1C(F)(F)F)C1CC1` (centres unmarked) [A4-115]: the “activity (mortality)” value stood at 90% with Ctenocephalides felis and 100% in data set [3]. Further, the insecticidal activity in data set [6] (setting [9]) and in [1] (setting [10]) was 100% each time. In addition, the “insecticidal activity (mortality)” value in [5] worked out at 100%. The “insecticidal activity (by feeding damage degree)” value in the data set on Thrips palmi is given as 98%. In data set [4] (setting [9]), this compound displayed an acaricidal activity of 100%.
For the compound `O=C(NCc1cnc(N2CCC(c3cc(Cl)c(F)c(Cl)c3F)(C(F)(F)F)C2O)cc1C(F)(F)F)C1CC1` (centres unmarked) [A5-82], the “activity (mortality)” value in the data set with Ctenocephalides felis came to 95%; in data set [3] it was 100%. Moreover, the insecticidal activity in data set [6] (setting [9]) and in data set [1] (setting [10]) was 100% each time. Also, in the data set on Thrips palmi, the “insecticidal activity (by feeding damage degree)” value is 90%. The compound also gave an acaricidal activity in [4] (setting [9]) of 100%.
As for `CCC(=O)NCc1ccc(N2CC(c3cc(Cl)c(Cl)c(Cl)c3)(C(F)(F)F)CC2=O)cc1C(F)(F)F` (centres unmarked) [C1-46, N-{4-[2-oxo-4-(3,4,5-trichlorophenyl)-4-(trifluoromethyl)pyrrolidin-1-yl]-2-(trifluoromethyl)benzyl}propanamide], the mortality at 100 ppm (in the data set with Ctenocephalides felis; in [7]) was 100% in each case. In [6] (setting [10]), this compound gave an insecticidal activity of 100%. For the same compound, the pest or weed control at 20 ppm in data set [2] (setting [12]) and in data set [4] (setting [13]) was 100% throughout.

By mortality is commonly meant the percentage killed.
